Laboratory results taken from patent US20160058775A1, “COMPOSITION AND FORMULATION OF ANTIMICROBIAL AGENTS, PROCESSES THEREOF AND METHODS FOR TREATING MICROBIAL INFECTIONS” (VYOME BIOSCIENCES PVT. LTD., priority 2013, published 2016).
Like-named read-outs stand apart in the source and are kept apart here.

Tested on: M. furfur
Source text: The time-kill assays were used to evaluate efficacy of antimicrobial agents, either singly or in combination, and the results can help in establishing the dose and/or time of application of the active. The time-kill assays were used to study both concentration-dependent and time-dependent antimicrobial action.
M. furfur cells were suspended in Sabouraud Dextrose Broth (SDB) at inoculum concentration of 7×10^7 cells/ml. Cells were taken from a freshly growing (3-7 days old) plate and cell suspension was vortexed to remove the cell clumps as much as possible. Sterile media were supplemented with chloramphenicol (0.25 mg/ml), cycloheximide (0.04 mg/ml) and olive oil (2%). The media were then supplemented with appropriate concentrations (two-fold serial dilutions using SDB) of unmodified zinc pyrithione API (10 μg/ml and 50 μg/ml) with different concentrations of Capmul 908-P (0%, 1%, 3%, 5% & 9%). The cultures were incubated on a tube rotator at 34° C. in CO2 incubator.
To measure the colony forming units (CFU), at different time points, aliquots (50 μl) of Malassezia cultures were serially diluted with SDBT medium (SDB containing 0.1% Triton X-100) and plated on SDA plates. The plates are incubated at 34° C. in CO2 incubator for 3 days. The viable colonies were counted and converted to CFU/ml.

Substance: zinc pyrithione [ZPT]
- Log CFU Count of M. furfur (ZPT 10 μg/ml, Capmul 908-P 30 μg/ml, 6 hrs): 6.50
- Log CFU Count of M. furfur (ZPT 10 μg/ml, Capmul 908-P 30 μg/ml, 24 hrs): 5.94
- Log CFU Count of M. furfur (ZPT 10 μg/ml, Capmul 908-P 30 μg/ml, 48 hrs): 5.06
- Log CFU Count of M. furfur (ZPT 10 μg/ml, Capmul 908-P 50 μg/ml, 6 hrs): 6.37
- Log CFU Count of M. furfur (ZPT 10 μg/ml, Capmul 908-P 50 μg/ml, 24 hrs): 5.57
- Log CFU Count of M. furfur (ZPT 10 μg/ml, Capmul 908-P 50 μg/ml, 48 hrs): 4.80
- Log CFU Count of M. furfur (ZPT 10 μg/ml, Capmul 908-P 90 μg/ml, 6 hrs): 6.33
- Log CFU Count of M. furfur (ZPT 10 μg/ml, Capmul 908-P 90 μg/ml, 24 hrs): 5.55
- Log CFU Count of M. furfur (ZPT 10 μg/ml, Capmul 908-P 90 μg/ml, 48 hrs): 4.77
- Log CFU Count of M. furfur (ZPT 10 μg/ml, Capmul 908-P nil, 6 hrs): 6.56
- Log CFU Count of M. furfur (ZPT 10 μg/ml, Capmul 908-P nil, 24 hrs): 6.13
- Log CFU Count of M. furfur (ZPT 10 μg/ml, Capmul 908-P nil, 48 hrs): 5.27
- Log CFU Count of M. furfur (ZPT 50 μg/ml, Capmul 908-P 30 μg/ml, 6 h): 6.06
- Log CFU Count of M. furfur (ZPT 50 μg/ml, Capmul 908-P 30 μg/ml, 24 h): 4.69
- Log CFU Count of M. furfur (ZPT 50 μg/ml, Capmul 908-P 30 μg/ml, 48 h): 3.25
- Log CFU Count of M. furfur (ZPT 50 μg/ml, Capmul 908-P 50 μg/ml, 6 h): 5.94
- Log CFU Count of M. furfur (ZPT 50 μg/ml, Capmul 908-P 50 μg/ml, 24 h): 4.62
- Log CFU Count of M. furfur (ZPT 50 μg/ml, Capmul 908-P 50 μg/ml, 48 h): 3.04
- Log CFU Count of M. furfur (ZPT 50 μg/ml, Capmul 908-P 90 μg/ml, 6 h): 5.52
- Log CFU Count of M. furfur (ZPT 50 μg/ml, Capmul 908-P 90 μg/ml, 24 h): 3.63
- Log CFU Count of M. furfur (ZPT 50 μg/ml, Capmul 908-P 90 μg/ml, 48 h): 2.08
- Log CFU Count of M. furfur (ZPT 50 μg/ml, Capmul 908-P nil, 6 h): 6.43
- Log CFU Count of M. furfur (ZPT 50 μg/ml, Capmul 908-P nil, 24 h): 5.39
- Log CFU Count of M. furfur (ZPT 50 μg/ml, Capmul 908-P nil, 48 h): 3.92
- Anti-microbial activity towards M. furfur with increasing concentration of propylene glycol monocaprylate (Capmul 908-P) (time-kill, Tables 12 and 13): gets potentiated
